Consider one compound from patent publication US20240075087A1, “COMPOSITIONS AND METHODS COMPRISING HEMP EXTRACT FOR THE TREATMENT OF ANIMALS IN NEED” (Portland Technology Holdings LLC, priority 2021, published 2024).

One series has as its target T1, CYP2D15 (Canis lupus familiaris, UniProt Q29473).
T1 construct: P450-specific marker activities in pooled dog liver microsomes; from tissue; host or cells: pooled dog liver microsomes
T1 sequence (Q29473 1-500): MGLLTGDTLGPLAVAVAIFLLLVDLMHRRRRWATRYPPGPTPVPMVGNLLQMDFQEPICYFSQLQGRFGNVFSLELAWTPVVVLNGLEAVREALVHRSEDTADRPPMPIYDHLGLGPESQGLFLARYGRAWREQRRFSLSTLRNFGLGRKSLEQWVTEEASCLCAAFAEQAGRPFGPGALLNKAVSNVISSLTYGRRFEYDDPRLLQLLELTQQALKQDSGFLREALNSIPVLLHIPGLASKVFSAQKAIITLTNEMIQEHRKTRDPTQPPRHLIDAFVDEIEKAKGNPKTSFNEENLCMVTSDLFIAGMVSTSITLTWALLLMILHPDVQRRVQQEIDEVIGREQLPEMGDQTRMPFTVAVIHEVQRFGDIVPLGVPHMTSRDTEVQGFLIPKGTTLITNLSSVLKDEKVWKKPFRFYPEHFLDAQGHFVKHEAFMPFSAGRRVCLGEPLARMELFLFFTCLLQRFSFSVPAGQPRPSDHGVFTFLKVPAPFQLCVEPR
In words: CYP2D15 activity inhibition in pooled dog liver microsomes. Format: in vitro ADME. Conditions: no preincubation vs 20 min preincubation, 10 μM.

The subject of series [1] is 17-71 B cell lymphoma cell line. In words: 48 hours MTT proliferation assay, 17-71. The settings on record: pure compound. The series is classed as cell-based, canine. On the procedure:
(§1) 3-(4,5-Dimethylthaizol-2-yl)-2,5-diphenyltetrazolium bromide (MTT) assays are performed on all previously described cell lines; CMT12, HMPOS, D17, Abrams and 17-71. […] Cells are treated with vehicle (methanol or ethanol/DMSO mix) or various concentrations of the CBD, CBDA or CBD-rich hemp extract ranging from 0.42 to 20 μg/mL in serial dilution for 48 hours. MTT assays are performed after 48 hours of treatment by adding 20 μL of MTT dye ([…] filtered 5 mg/mL in phosphate-buffered saline [PBS]) to each well and incubating at 37° C. in 5% CO2 for 2 hours. The media is then aspirated, washed once with 200 μL of PBS and then solubilized in 200 μL of ethanol. Immediate analysis of the optical density of each well is performed using a spectrophotometric plate reader (Epoch; Biotek, Winooski, Vermont) at a wavelength of 570 nm as previously described (e.g., Vega-Avila E and Pugsley M K, An overview of colorimetric assay methods used to assess survival or proliferation of mammalian cells, Proc West Pharmacol Soc., 2011, 54, pp. 10-14 which is incorporated herein by reference in its entirety). The percent proliferating cells of control for each concentration is averaged and reported as a mean+/—SD from triplicate wells over three experiments.
(§2) For CBD, CBDA and hemp extract concentrations needed to obtain a 50% inhibition of cell proliferation (IC50) are then calculated across experiments by Probit analysis using XLFit5 software (IDBS, Guildford, United Kingdom) for reporting the results for each cell line.
(Formazan colour is commonly taken as a measure of viable cells.)

In another series the target is T2, canine P-glycoprotein (Canis lupus familiaris, UniProt C0KKU9).
T2 construct: host or cells: MDCK PGP cells (canine P-gp expressing cell line)
T2 sequence (C0KKU9 1-1281): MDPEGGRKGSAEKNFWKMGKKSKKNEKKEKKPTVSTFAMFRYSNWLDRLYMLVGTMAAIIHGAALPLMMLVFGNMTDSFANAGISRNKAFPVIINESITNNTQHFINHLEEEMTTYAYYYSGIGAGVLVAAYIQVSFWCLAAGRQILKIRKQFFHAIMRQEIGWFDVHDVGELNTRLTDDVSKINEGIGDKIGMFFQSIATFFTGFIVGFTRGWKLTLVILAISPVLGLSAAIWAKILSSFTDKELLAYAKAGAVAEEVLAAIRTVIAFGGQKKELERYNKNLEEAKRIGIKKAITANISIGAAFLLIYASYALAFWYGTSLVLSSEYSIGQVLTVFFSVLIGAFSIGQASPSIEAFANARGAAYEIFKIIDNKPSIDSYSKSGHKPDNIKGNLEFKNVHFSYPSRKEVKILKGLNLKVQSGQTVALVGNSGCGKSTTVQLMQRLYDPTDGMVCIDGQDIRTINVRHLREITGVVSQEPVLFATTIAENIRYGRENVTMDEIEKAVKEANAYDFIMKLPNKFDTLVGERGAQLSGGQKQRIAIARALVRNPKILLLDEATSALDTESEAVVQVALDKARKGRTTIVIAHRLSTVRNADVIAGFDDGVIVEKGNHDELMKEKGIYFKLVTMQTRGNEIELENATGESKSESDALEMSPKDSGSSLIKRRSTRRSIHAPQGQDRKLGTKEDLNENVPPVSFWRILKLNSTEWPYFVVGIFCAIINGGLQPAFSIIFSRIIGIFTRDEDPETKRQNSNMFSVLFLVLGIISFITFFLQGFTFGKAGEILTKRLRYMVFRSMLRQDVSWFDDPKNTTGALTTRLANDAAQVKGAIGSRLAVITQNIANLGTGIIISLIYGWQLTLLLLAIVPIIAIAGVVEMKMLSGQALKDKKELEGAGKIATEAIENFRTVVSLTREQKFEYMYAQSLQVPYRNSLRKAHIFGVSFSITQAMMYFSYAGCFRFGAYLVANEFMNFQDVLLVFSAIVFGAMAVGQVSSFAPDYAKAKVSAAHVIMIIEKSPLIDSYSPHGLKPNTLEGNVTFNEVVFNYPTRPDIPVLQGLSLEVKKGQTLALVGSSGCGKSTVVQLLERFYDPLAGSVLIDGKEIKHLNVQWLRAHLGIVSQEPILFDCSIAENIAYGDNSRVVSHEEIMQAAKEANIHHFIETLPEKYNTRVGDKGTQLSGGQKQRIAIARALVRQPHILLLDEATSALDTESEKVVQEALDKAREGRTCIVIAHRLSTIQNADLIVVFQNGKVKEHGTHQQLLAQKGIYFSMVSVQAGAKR
Briefly: P-glycoprotein competitive transport assay (rhodamine 123, MDCK PGP cells). Format: in vitro ADME. Conditions: highest concentration tested, 1,000 ng/mL. Here is the method: In this second study, a competitive P-gp substrate assay incorporating a canine P-gp expressing cell line is used to assess each test compound's ability to compete with the P-gp substrate rhodamine 123. Each concentration is tested on 3 separate days with same-day duplicates. Positive controls and negative controls are included in each run.
Results for each concentration of test compound evaluated are reported as non-P-gp substrate, weak P-gp substrate, moderate P-gp substrate, or strong P-gp substrate. The concentrations for CBD and CBDA are as follows: 10 ng/mL, 100 ng/mL and 1,000 ng/mL.
A competitive P-gp substrate assay using a canine P-gp expressing cell line was used to assess CBDA and/or CBD as a substrate for canine P-glycoprotein.

Series [2] concerns CMT12 mammary gland carcinoma cell line. In words: 48 hours MTT proliferation assay, CMT12. Format: cell-based, canine. Conditions: pure compound. Here is the method:
as §1, §2

A further series addresses CYP3A12 (Canis lupus familiaris, UniProt P24463). In words: CYP3A12 activity inhibition in pooled dog liver microsomes. On the procedure: Inhibition potency (i.e. IC50) is determined by measuring the decrement in metabolism of P450-specific marker activities in pooled dog liver microsomes with increasing concentrations of CBD, CBDA, and hemp extracts. P450-specific markers include bupropion 6-hydroxylation (CYP2B11), dextromethorphan 0-demethylation (CYP2D15) and omeprazole sulfoxidation (CYP3A12). IC50 values are determined both with and without preincubation of liver microsomes with potential inhibitor to evaluate whether there is mechanism-based time-dependent inhibition.
The following parameters are assessed: (1) the rates of CBD and CBDA metabolism by dog liver microsomes and by 11 recombinant canine P450 enzymes; (2) the predicted percent contribution of each P450 to total CBD and CBDA metabolism in dog liver; and (3) IC50 values for inhibition of CYP2B11, CYP2D15 and CYP3A12 metabolism in dog liver, both with and without inhibitor preincubation.
FIGS. 13-15 show activity assays for CYP3A12 (FIGS. 13A and 13B), CYP2B11 (FIGS. 14A and 14B), and CYP2D15 (FIGS. 15A and 15B). Assays using either no preincubation (FIGS. 13A, 14A, and 15A) or 20 minutes of preincubation (FIGS. 13B, 14B, and 15B) were performed.

Each structure is given as a SMILES string. pIC50: −log10 of the molar value. In brackets after ≈: the same amount, converted by molar mass. Some results are limits rather than exact numbers.

CYP3A12, sequence (P24463 whole entry): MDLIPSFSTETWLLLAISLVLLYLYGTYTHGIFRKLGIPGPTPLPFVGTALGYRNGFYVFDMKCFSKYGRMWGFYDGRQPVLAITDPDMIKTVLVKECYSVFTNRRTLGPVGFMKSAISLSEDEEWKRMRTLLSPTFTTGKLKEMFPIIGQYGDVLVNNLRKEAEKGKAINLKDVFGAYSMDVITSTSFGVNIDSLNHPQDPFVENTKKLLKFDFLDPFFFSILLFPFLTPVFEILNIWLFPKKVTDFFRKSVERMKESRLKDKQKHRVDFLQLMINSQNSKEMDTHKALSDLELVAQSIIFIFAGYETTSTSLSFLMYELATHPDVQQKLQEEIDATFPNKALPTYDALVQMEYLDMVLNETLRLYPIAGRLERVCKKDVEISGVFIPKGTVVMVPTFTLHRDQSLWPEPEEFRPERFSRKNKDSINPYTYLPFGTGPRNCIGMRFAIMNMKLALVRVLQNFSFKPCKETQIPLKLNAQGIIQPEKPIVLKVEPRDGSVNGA

The IC50 is the concentration that inhibits the measured activity by half. The term pIC50 denotes the IC50 on a negative log10 scale, so that one unit is a factor of ten. A higher pIC50 goes with a low IC50. For `C=C(C)[C@@H]1CCC(C)=C[C@H]1c1c(O)cc(CCCCC)cc1O` [CBD, cannabidiol], the “time-dependent inhibition (TDI)” value is “showed time-dependent inhibition (TDI)” on CYP2D15 and “showed time-dependent inhibition (TDI)” at CYP3A12 (CYP3A12, no preincubation vs 20 min preincubation, 10 μM). Also, the IC50 in series [1] (Canis lupus familiaris, B-cell, read-out: IC50 (Probit)) was found to be 2.5 µg/mL (≈ 7.95 µM); in series [2] (Canis lupus familiaris, read-out: IC50 (Probit)), 3.5 µg/mL (≈ 11.1 µM). Moreover, the “concentrations that significantly diminished proliferation vs vehicle control” value in series [1] (P<0.05) and in series [2] (P<0.05) was not below 2.5 µg/mL in each case. Besides, on canine P-glycoprotein, the P-gp substrate classification result is on record as “not a substrate for canine PGP”. At CYP3A12, this compound had a pIC50 of more than 6.00.
